Data set [1] deals with TNF-α. The settings on record: high doses, literature (Meda et al.); cited from earlier work.
The subject of a further data set is IL-1β. Description: IL-1β secretion from HAEC, ELISA. In kind it is cell-based, human. The settings on record: 24 hours. The procedure: The assay for either IL-1β or IFN-γ was performed in strict accordance with the manufacturer's instructions for the respective assay kits.
The resulting cell culture media were assayed for IL-1β or IFN-γ using ELISA. […] The lowest effective concentration was determined to be 100 nM for IFN-γ ([…]). The lowest effective concentration was determined to be 100 nM for IFN-γ (p<0.01) and 1 μM for IL-1β (p<0.01).

In data set [2] the test system is CD40. Description: CD40 cell ELISA on cultured HAEC. The settings on record: Aβ 50 nM to 10,000 nM; IFN-γ 5 to 500 U/mL; 48 hours. It counts as cell-based, human. The procedure:
To determine if CD40 expression on cultured HAEC was IFN-γ or Aβ dose-dependent, CD40 cell ELISA assays were performed according to published procedures. Briefly, cultured HAEC were plated at 2×10^4 cells/well in flat-bottom, 96-well tissue culture plates (Nunc-Immuno™ Plate, Denmark). […] Other HAEC were treated with a dose range (5 U/mL to 500 U/mL) of IFN-γ. […] Forty-eight hours post-treatment, plates were fixed overnight at 4° C. in 1% paraformaldehyde diluted in 1×PBS, washed three times with wash buffer (0.5% Tween 20 in 1×PBS), and subsequently incubated with […] of blocking buffer (10% fetal bovine serum in wash buffer) for one hour at 37° C. Cells were then treated with purified anti-human CD40 antibody ([…], PharMingen, Los Angeles, Calif.) in […] of blocking buffer for one hour at 37° C. Plates were washed four times with wash buffer. Biotinylated anti-mouse IgG1 (PharMingen, Los Angeles, Calif.; 1:2,000 dilution in blocking buffer, […]) was added and incubated for one hour at 37° C., followed by the addition of […] of a 1:3,000 dilution of HRP-Streptavidin (ZYMED, San Francisco, Calif.) for thirty minutes at 37° C. Plates were washed 4× with wash buffer and developed for twenty minutes at room temperature using the 3, 3′, 5, 5′-tetramethylbenzidine (TMB) one-step substrate system (DAKO, Carpinteria, Calif.) followed by the addition of 100 μL/well of 2N H2SO4 to stop the reaction. Absorbance was measured at 450 nm using a microplate spectrophotometer (SPECTRAmax 250, Molecular Devices, Sunnyvale, Calif.).

The subject of data set [3] is TNF-α. Description: TNF-α release from cultured microglia, TNF-α ELISA. It counts as cell-based, mice. The settings on record: 500 nM, primary cultured microglia.
A further data set concerns HAEC. The data set can be described thus: Cytotoxicity in HAEC, LDH release assay. In kind it is cell-based, human. The settings on record: 500 nM, 48 hours. Here is the method:
Previous reports have shown that overexpression of amyloid precursor protein or exogenous addition of Aβ peptides can have cytotoxic effects on cultured endothelial cells.
In order to determine if ligation of endothelial CD40 could result in production of pro-inflammatory cytokines, IL-1β was measured following treatment with IFN-γ or Aβ peptides. […] There was not observe a significant induction of endothelial cell death by LDH release assay between treatment groups during the time course examined by IL-1β release assay (by One-way ANOVA, F(6,41)=0.322, p=0.921), supporting the hypothesis that stimulation of the CD40 pathway in endothelial cells results in an early pro-inflammatory cascade which later promotes cell injury, rather than induce cytotoxicity acutely.

Data set [4] has as its system IFN-γR. The data set can be described thus: IFN-γR expression in HAEC, cell-ELISA (CELISA) and Western blotting. It counts as cell-based, human. The procedure:
(§1) In vitro measurement of Aβ-induced changes in expression of the inflammatory cell-surface molecules CD40 and […] in cultured HAEC and HASM cells was performed using a slightly modified ABC-based cell-ELISA (CELISA). […] After PBS washes, 4% neutral formalin solution (Sigma) was used for fixation of the cells. Following quenching of the endogenous peroxidase activity with 3% H2O2 and routine blocking of non-specific binding, the biotinylated specific secondary antibodies against the primary antibodies (goat anti-mouse or anti-rabbit IgG) were applied. The combination of EXTRAVIDIN® Proxidase and the subsequent color reaction was performed strictly according to the manufacturer's instructions in the EXTRAVIDIN® Peroxidase Staining Kit (Sigma). The absorbance of 405 nm was then measured using a microplate reader (SPECTRAmax 250, Molecular Devices). The optical density (O.D.) value for the wells in the absence of the primary antibody for each group was considered as background and subtracted as the blank. In addition, stimulation with IFN-γ for CD40 was included as a positive control in the appropriate plate. Since CD45 is not expressed by endothelial or smooth muscle cells, the assays for expression of CD45 in these Aβ-treated cells were used as negative controls throughout the experiment. In addition, to evaluate the degree of cell death or proliferation in the Aβ-treated, cells, parallel experiments were performed using the MTS (3-(4,5-dimethylthiazol-2-yl)-5-(3-carboxymethoxyphenyl)-2-(4-sulfophenyl)-2H-tetrazolium) cell-proliferation kit (Promega).
(§2) Activation of CD40 signalling can be achieved by stimulation with either CD40L or certain anti-CD40 mAbs. Since synthetic CD40L is not commercially available, one of the anti-CD40 mAbs (clone 3/23), which has been reported to activate CD40 signalling, was used to mimic the effect of interaction of CD40-CD40L. All Aβ-treated cells were incubated with 1 μg/ml anti-CD40 mAb […]) for four hours followed by CELISA.
The total protein was estimated using the Bio-Rad protein assay. An aliquot corresponding to 100 μg of total protein of each sample was separated by SDS/PAGE (polyacrylamide gel electrophoresis) and transferred electrophoretically to PVDF filters. Non-specific binding of antibody was blocked with 5% non-fat dry milk, in 20 mM Tris/HCl, pH 7.5/150 mM NaCl/0.1% Triton X-100. Immunoblotting was carried out with the appropriate antibody followed by alkaline phosphatase-conjugated secondary anti-immunoglobulin antibodies. These were then developed by the chemiluminescence method (Bio-Rad).

Data set [5] has as its system IFN-γR. The data set can be described thus: IFN-γR expression in HASM cells, cell-ELISA (CELISA). The settings on record: Aβ-treated cells, 1 μg/ml mAb, four hours. It counts as cell-based, human. The procedure:
as §1, §2

The subject of data set [6] is CD40. The data set can be described thus: CD40 cell-surface expression on HAEC, flow cytometry. In kind it is cell-based, human. To be noted: Aβ 500 nM, IFN-γ 10 U/mL; vs control peptide or Aβ-free. The procedure:
Cultured HAEC were treated as described above. […] Cells were analyzed on a FACScan flow cytometer (Becton-Dickinson, Mountain View, Calif.) using LYSIS-II software. CD40-expressing cells are defined as percentage of CD40-staining cells minus the percentage of IgG1-staining cells.
CD40 expression between control peptide-treated and Aβ-free AEC was relatively similar.

Where only a bound is given, the exact number is not on record here.

Consider “Aβ1-42: amyloid β peptide 1-42, freshly solubilized”, for which the “dose able to produce increased TNF-α production in microglial cells” value in the data set on TNF-α [1] is > 11 µM. Also, the “lowest effective concentration for IL-1β secretion” value in the data set on IL-1β worked out at 1 µM. Further, the “IL-1β secretion, dose dependence” value with IL-1β (increasing concentrations) was “increases the secretion of IL-1β and IFN-γ in a dose-dependent manner”. Also, in the data set on CD40 [2], the “dose dependence of endothelial CD40” value is listed as “marked increase in endothelial CD40 which is dose-dependent”. The “TNF-α release, peptide alone” value in the data set with TNF-α [3] is “does not induce TNF-α release”. In the data set on HAEC, the “cell injury, LDH release” value is on record as “no significant induction of cell injury”. In addition, in the data set with IFN-γR [4] (1 μg/ml mAb (3/23), four hours), the “Aβ-induced IFN-γR expression in HAEC on CD40 ligation” value is given as “significant effect”. The “IFN-γR expression in HAEC” value in the data set on IFN-γR [4] (48 hours) is “preferentially activates endothelial cells rather than smooth muscle cells”. In addition, the “IFN-γR expression in HASM cells on CD40 ligation by mAb (3/23)” value in the data set with IFN-γR [5] is “additive”. Besides, the “CD40 cell-surface expression, flow cytometry” value in the data set on CD40 [6] was “significantly induce CD40 expression”.

These data come from patent publication US6787318B1, “Assay for evaluating the therapeutic effectiveness of agents in reducing Alzheimer's disease pathology” (Roskamp Research Institute, LLC, priority 1999, dated 2004).
